Assay results from publication PMC6944710, “In vitro and in silico insights into tyrosinase inhibitors with (E)-benzylidene-1-indanone derivatives” (Computational and Structural Biotechnology Journal, 2019).
“Also recorded” adds a separate entry of the source. Where two headings read alike, the source gives them in different places.

Key:
tyrosinase = conditions: cited from earlier work
mushroom tyrosinase [1] = assay: Mushroom tyrosinase inhibitory assay (L-tyrosine or L-DOPA as substrate); format: biochemical, Agaricus bisporus; conditions: for Inhibitory effect at the concentration of 200 µM / Tyrosinase inhibitory activity (in words): mushroom tyrosinase; for IC50: mean ± SEM of triplicate experiments; for Tyrosinase inhibitory activity (in words): L-tyrosine and L-DOPA
Procedure: Tyrosinase inhibitory activity assay was performed using mushroom tyrosinase as described previously, with minor modification, [36]. […] […] The reaction mixtures were incubated at 37 °C for 30 min. After that, the amount of dopachrome produced in each well was measured by spectrophotometric analysis at 492 nm (OD492) using a microplate reader.

B16F10 melanoma cells [2] = assay: Cell viability assay (EZ-Cytox); format: cell-based, Murine; conditions: 1–20 µM, 24 h and 48 h
Procedure: Murine melanoma B16F10 cells were purchased from the Korean Cell Line Bank (KCLB, Seoul, Korea) and cultured in DMEM supplemented with 10% FBS and 1% streptomycin, and then incubated at 37 °C, humidified with 5% atmospheric CO2. Cell viability analyses were performed as previously described. Briefly, cells seeded at a density of 1 × 10^4 cells/well in a 96-well plate for 24 h. On the following day, the cells were exposed to different concentrations of BID3 and incubated for 24 or 48 h, respectively. Then, 10 µL EZ-Cytox solution was added to each well and the cells were incubated for 2–4 h. Absorbance was determined using ELISA at a wavelength of 450 nm. Each assay was performed in triplicate.

mushroom tyrosinase [3] = assay: Enzyme kinetic analysis with tyrosinase (Lineweaver-Burk and Dixon plots); format: biochemical, Agaricus bisporus; conditions: L-DOPA as substrate
Procedure: To determine the kinetic mechanisms of inhibition, two complimentary kinetics methods were used: Lineweaver–Burk and Dixon plots, [38], [39]. Using Lineweaver-Burk plots (double reciprocal plots), the inhibition type of BID3 was determined using various concentrations of L-DOPA (0.125, 0.25, 0.5, and 1 mM), as substrates, in the absence and presence of various concentrations of BID3 (1, 2, and 4 μM). A Dixon plot (single reciprocal plots) for tyrosinase inhibition was obtained in the presence of various concentrations of L-DOPA (0.125, 0.25, 0.5, and 1 mM). The concentrations of BID3 were 1, 2, and 4 µM. The enzymatic procedures consisted of the previously described tyrosinase assay methods. The inhibition constant (Ki) was determined from the interpretation of Dixon plots.

[4] = biological target: T1, cellular tyrosinase of B16F10 cells (Mus musculus, UniProt P11344); assay: Cellular tyrosinase activity in α-MSH and IBMX-stimulated cells; format: cell-based, Murine; conditions: BID3 1, 5, and 20 µM (methods: 1, 5, and 10 µM), 48 h
T1 construct: endogenous in cells; host or cells: B16F10 melanoma cells
T1 sequence (P11344 19-533): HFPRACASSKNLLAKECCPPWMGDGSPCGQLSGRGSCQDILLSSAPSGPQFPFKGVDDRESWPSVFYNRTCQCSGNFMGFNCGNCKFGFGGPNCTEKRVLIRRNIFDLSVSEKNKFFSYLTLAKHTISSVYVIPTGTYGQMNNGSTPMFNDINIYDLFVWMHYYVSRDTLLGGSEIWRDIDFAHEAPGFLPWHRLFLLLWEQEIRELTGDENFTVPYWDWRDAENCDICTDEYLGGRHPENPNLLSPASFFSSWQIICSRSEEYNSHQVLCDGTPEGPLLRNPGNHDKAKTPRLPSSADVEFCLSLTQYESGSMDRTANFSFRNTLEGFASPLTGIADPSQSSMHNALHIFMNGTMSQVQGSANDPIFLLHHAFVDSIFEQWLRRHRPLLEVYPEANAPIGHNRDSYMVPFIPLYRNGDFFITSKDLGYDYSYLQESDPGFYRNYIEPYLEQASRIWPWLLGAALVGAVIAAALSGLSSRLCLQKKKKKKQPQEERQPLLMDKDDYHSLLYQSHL
Procedure: Cellular tyrosinase activity was assessed as described previously, with slight modifications, [45]. Briefly, 2 × 10^5/cells were plated in 6-well dishes and incubated overnight. […] After being rinsed twice with PBS, the cells were lysed with 100 µL lysis solution containing 50 mM phosphate buffer (pH 6.5), 0.1 mM phenylmethylsulfonylfluoride (PMSF), and 1% Triton X-100 and frozen at −80 °C for 30 min. Lysates were thawed and centrifuged at 12,000 rpm for 30 min at 4 °C. […] After incubation at 37 °C for 30 min, the optical density at 492 nm was measured using an ELISA reader (TECAN, Salzburg, Austria). The protein concentration was determined using BCA protein assay reagent using […] (Thermo Scientific, Rockford, IL, USA).

B16F10 melanoma cells [5] = assay: Melanin contents assay in α-MSH and IBMX-stimulated cells; format: cell-based, Murine; conditions: BID3 1, 5, and 20 µM (methods: 1, 5, and 10 µM), 48 h
Procedure: Melanin content was determined as described previously. B16F10 melanoma cells (2 × 10^5 cells/well) were seeded in 6-well culture plates. […] After washed twice with PBS, the cells were detached by incubation in Trypsin/EDTA, and the pellets were dissolved in 100 µL of 1 N NaOH, and then incubated at 60 °C for 1 h and mixed to solubilize the melanin. The melanin contents were determined by measuring absorbance at 405 nm by using the ELISA reader (TECAN, Sunrise, Austria). The melanin content was calculated using the following equation: (Δsample/Δcontrol) × 100%. All determinations were performed in triplicate.

[6] = L-DOPA substrate, read-out: IC50 (μM), L-DOPA as substrate (diphenolase activity)
[7] = L-tyrosine substrate, read-out: IC50 (μM), L-tyrosine as substrate (monophenolase activity)

| Compound | IC50 (mushroom tyrosinase [1]; [6]) | IC50 (mushroom tyrosinase [1]; [7]) | melting point | also measured |
| --- | --- | --- | --- | --- |
| O=C(O)c1ccccc1C(=O)O [Phthalic acid, phthalic acid, reference compound] | > 200 µM | > 200 µM | – | Reported type of tyrosinase inhibition (tyrosinase): mixed-mode tyrosinase inhibitor; Inhibitory effect at the concentration of 200 µM (mushroom tyrosinase [1]): no inhibitory effect |
| O=C1/C(=C/c2cc(Br)c(O)c(Br)c2)Cc2ccccc21 [BID13, (E)-2-(3,5-Dibromo-4-hydroxybenzylidene)-2,3-dihydro-1H-inden-1-one] | 75.3 ± 7.94 µM | > 200 µM | 267.4 to 268.1 °C | – |
| O=C1/C(=C/c2ccc(O)c(O)c2)Cc2ccccc21 [BID2, (E)-2-(3,4-Dihydroxybenzylidene)-2,3-dihydro-1H-inden-1-one] | 52.9 ± 2.62 µM | 41.3 ± 3.03 µM | – | – |
| COc1ccc(/C=C2\Cc3ccccc3C2=O)c(OC)c1 [BID9, (E)-2-(2,4-Dimethoxybenzylidene)-2,3-dihydro-1H-inden-1-one] | 96.9 ± 9.78 µM | > 200 µM | – | – |
| O=C(O)/C=C/c1ccccc1 [Cinnamic acid, trans-cinnamic acid, reference compound] | > 200 µM | > 200 µM | – | Reported type of tyrosinase inhibition (tyrosinase): mixed-mode tyrosinase inhibitor; Inhibitory effect at the concentration of 200 µM (mushroom tyrosinase [1]): no inhibitory effect |
| COc1ccc(/C=C2\Cc3ccccc3C2=O)cc1 [BID7, (E)-2-(4-Methoxybenzylidene)-2,3-dihydro-1H-inden-1-one] | > 200 µM | > 200 µM | – | – |
| O=C1/C(=C/c2ccc(O)c(Br)c2)Cc2ccccc21 [BID12, (E)-2-(3-Bromo-4-hydroxybenzylidene)-2,3-dihydro-1H-inden-1-one] | > 200 µM | > 200 µM | 225 to 226.2 °C | – |
| COc1cc(/C=C2\Cc3ccccc3C2=O)cc(OC)c1OC [BID10, (E)-2-(3,4,5-Trimethoxybenzylidene)-2,3-dihydro-1H-inden-1-one] | > 200 µM | > 200 µM | 164.4 to 165.2 °C | – |
| COc1ccc(/C=C2\Cc3ccccc3C2=O)cc1OC [BID8, (E)-2-(3,4-Dimethoxybenzylidene)-2,3-dihydro-1H-inden-1-one] | > 200 µM | > 200 µM | 176.5 to 177.2 °C | – |
| O=C1/C(=C/c2ccc(O)cc2)Cc2ccccc21 [BID1, (E)-2-(4-Hydroxybenzylidene)-2,3-dihydro-1H-inden-1-one] | 130 ± 5.39 µM | 39.7 ± 3.71 µM | – | – |
| CCOc1cc(/C=C2\Cc3ccccc3C2=O)ccc1O [BID5, (E)-2-(3-Ethoxy-4-hydroxybenzylidene)-2,3-dihydro-1H-inden-1-one] | > 200 µM | > 200 µM | 135.8 to 136.4 °C | – |
| COc1ccc(/C=C2\Cc3ccccc3C2=O)cc1O [BID6, (E)-2-(3-Hydroxy-4-methoxybenzylidene)-2,3-dihydro-1H-inden-1-one] | 50.8 ± 2.16 µM | 5 ± 0.91 µM | – | – |
| COc1cc(/C=C2\Cc3ccccc3C2=O)cc(OC)c1O [BID11, (E)-2-(4-Hydroxy-3,5-dimethoxybenzylidene)-2,3-dihydro-1H-inden-1-one] | > 200 µM | 75.2 ± 2.24 µM | 190.2 to 191.1 °C | Tyrosinase inhibitory activity (in words) (mushroom tyrosinase [1]): moderate tyrosinase inhibitory activity |
| O=C1/C(=C/c2ccc(O)cc2O)Cc2ccccc21 [BID3, (E)-2-(2,4-Dihydroxybenzylidene)-2,3-dihydro-1H-inden-1-one] | 1.39 ± 4e-05 µM | 0.034 ± 0.00224 µM | – | Cytotoxic effect on B16F10 cells (B16F10 melanoma cells [2]): no significant cytotoxic effect; also recorded: without inducing cytotoxicity; Ki (mushroom tyrosinase [3]; Dixon plot): 2.4 µM; Type of tyrosinase inhibition (mushroom tyrosinase [3]; Lineweaver-Burk and Dixon plots): mixed-type inhibition; also recorded: mixed-type inhibitor; Cellular tyrosinase activity [4]: inhibited; also recorded: concentration dependently decrease; Melanin contents (B16F10 melanoma cells [5]): decreased; also recorded: concentration dependently decrease |
| COc1cc(/C=C2\Cc3ccccc3C2=O)ccc1O [BID4, (E)-2-(4-Hydroxy-3-methoxybenzylidene)-2,3-dihydro-1H-inden-1-one] | > 200 µM | 73.5 ± 5.78 µM | – | Tyrosinase inhibitory activity (in words) (mushroom tyrosinase [1]): moderate tyrosinase inhibitory activity |
| O=c1cc(CO)occ1O [Kojic acid, kojic acid] | – | – | – | Reported type of tyrosinase inhibition (tyrosinase): competitive type inhibitor |
